In PMC6611794, “Development of a high-throughput strategy for discovery of potent analogues of antibiotic lysocin E” (Nature Communications, 2019):
“Also recorded” adds a separate entry of the source. Where two headings read alike, the source gives them in different places. Where a SMILES comes first, the peptide text is derived from it. Bridges are numbered along the chain shown (N, C = ends). [ ]: non-standard residue; d: D form. The star is where a group is joined. Hexanoyl(3R-OH,5-Me) = CC(C)C[C@@H](O)CC(=O)*; dNMeF = CN[C@H](Cc1ccccc1)C(=O)O; dOrn = NCCC[C@@H](N)C(=O)O

Columns and labels:
[1] = Description: Preparation of LUVs consisting of PC/PG/MK-4 or PC/PG/UQ-10. To a solution of egg yolk phosphatidylcholine (9.48 mg, 12.4 µmol) and egg yolk phosphatidylglycerol (9.66 mg, 12.4 µmol) in CHCl3 (0.208 mL) was added a solution of MK-4 (2) or UQ-10 (3) (0.313 µmol) in CHCl3 (21.8 µL). The solution was concentrated, and dried under vacuum to for m a lipid thin film. The thin film was hydrated and suspended in carboxyfluorescein-containing buffer solution (0.500 mL, 5 mM HEPES, 20 mM carboxyfluorescein , pH 7.5) by vortexing and sonication. After five-times freeze-thaw cycles, the lipid suspension was extruded 19 times through a polycarbonate filter with 0.40 µm of pore siz e in the diameter.
The external carboxyfluorescein -containing buffer was replaced with a carboxyfluorescein -free buffer solution (20 mM HEPES, 1 mM EDTA, pH 7.5) through size exclusion chromatography using disposable PD -10 column. Concentration of egg yolk phosphatidylcholine was determined by using Phospholipid C -Test Wako.
The final concentration of egg yolk phosphatidylcholine was adjusted to 4.0 µM with the carboxyfluorescein -free buffer solution, and the solution was used for membrane disruption ass ay.
Membrane disruption assay. […]
to various concentrations as 5-fold serial dilutions. The solution of peptides (2 µL/well) and the carboxyfluorescein-encapsulated LUV suspension (200 µL/well) were mixed in black polystyrene flat-bottom 96-well plates. The final concentration of peptides ranged from 2970 nM to 0.950 nM. The plates were vortexed at room temperature for 30 min, and then fluorescence of carboxyfluorescein (Ex. 490 nm/Em. 517 nm) of each well was measured at room temperature on Gemini EM microplate reader. Trion X-100/H2O (5/95, 2 µL), MeOH/H2O (4/6, 2 µL), and the LUV suspension were mixed in each plate to determine 100% lysis. MeOH/H2O (4/6, 2 µL) and the LUV suspension were mixed in each plate to determine 0% lysis.
The membrane disruption activities of tested peptides (I) were normalized against 100% lysis by Triton X -100 […]
(Imax) and 0% lysis by MeOH/H2O (4/6) (I0) as following, where Ix is the fluorescence intensity (Supplementary Equation 2).
I = 100 × (Ix – I0) / (Imax – I0) (2)
The membrane-disrupting activities were evaluated as half-maximal response (EC50, nM) values by means of three replicates. Sigmoidal curve fittings were performed on R2 with drc package (Supplementary Figs S7–S9).3 Two-parameter logistic model was applied for the fitting.

[2] = test system: S. aureus Smith ATCC 13709; test: Antimicrobial activity assay of bead-derived peptides (one-bead, microscale); assay type: cell-based, Staphylococcus aureus; design: key to antimicrobial activity: ++: inhibition; +: partial inhibition; -: no inhibition; conditions: for antimicrobial activity: 85% of one-bead-derived crude peptide, 40 μL Mueller Hinton Broth with 10% calf serum, 37 °C, 18 h
Description: Finally, a microscale antimicrobial assay was developed to evaluate the activity of 1 in solution phase.
Antimicrobial activity assay of bead-derived peptides. To the crude peptides in the 96-well round-bottom plate was added DMSO (1 µL/well). To the solution of peptides in each well was added a suspension of S. aureus Smith ATCC 13709 strain in 10% calf serum containing cation adjusted Müller Hinton Broth [40 µL, 2 ×10^5 colony forming units (CFU) , 21 g/L Müller Hinton Broth (Difco), 5 0 mg/L Ca2+ (adjusted with CaCl2• 2H2O), and 25 mg/L Mg 2+ (adjusted with MgCl 2•6H2O)]. The plate was incubated at 37 °C for 18 h, and the precipitation of the grown cells was examined. […]

[3] = read-out: EC50 PC/PG/2 1st, PC/PG/2 LUVs, 1st experiment
[4] = read-out: EC50 PC/PG/2 2nd, PC/PG/2 LUVs, 2nd experiment
[5] = read-out: EC50 PC/PG/2 3rd, PC/PG/2 LUVs, 3rd experiment
[6] = read-out: EC50 PC/PG/2, 30 min, room temperature, mean ± SD of three independent experiments

Work on `CC[C@H](C)[C@@H]1NC(=O)[C@@H](Cc2c[nH]c3ccccc23)NC(=O)[C@@H](C(C)C)NC(=O)[C@H](CCC(=O)O)NC(=O)[C@@H](CCCNC(=N)N)NC(=O)[C@H](CC(C)C)NC(=O)[C@@H](Cc2ccccc2)N(C)C(=O)CNC(=O)[C@H](C)NC(=O)[C@@H](CCCNC(=N)N)NC(=O)[C@@H](NC(=O)C[C@H](O)CC(C)C)[C@@H](C)OC(=O)[C@H]([C@@H](C)O)NC1=O` [Peptide A2] ({Hexanoyl(3R-OH,5-Me)}-T[dR]AG[dNMeF]L[dR]E[dV][dW]IT; ester 1-C) yielded an EC50 [1, 3] of 31.1 nM, an EC50 [1, 4] of 18.3 nM and an EC50 [1, 5] of 4.6 nM. For the same compound, the EC50 [1, 6] was 18 ± 13.3 nM and the antimicrobial activity [2] was “++”.

For `CC[C@H](C)[C@@H]1NC(=O)[C@@H](Cc2c[nH]c3ccccc23)NC(=O)[C@@H](CCC(N)=O)NC(=O)[C@H](CCC(=O)O)NC(=O)[C@@H](CCCNC(=N)N)NC(=O)[C@H](CC(C)C)NC(=O)[C@@H](Cc2ccccc2)N(C)C(=O)CNC(=O)[C@H](C)NC(=O)[C@@H](CCCNC(=N)N)NC(=O)[C@@H](NC(=O)C[C@H](O)CC(C)C)[C@@H](C)OC(=O)[C@H]([C@@H](C)O)NC1=O` [Peptide A1] ({Hexanoyl(3R-OH,5-Me)}-T[dR]AG[dNMeF]L[dR]E[dQ][dW]IT; ester 1-C), the EC50 [1, 3] was 25.9 nM, the EC50 [1, 4] was 4.68 nM and the EC50 [1, 5] was 6.1 nM. For the same compound, the EC50 [1, 6] was 12.2 ± 11.9 nM and the antimicrobial activity [2] was “+”.

With `CC(C)C[C@@H](O)CC(=O)N[C@@H]1C(=O)N[C@H](CCCNC(=N)N)C(=O)N[C@@H](C)C(=O)NCC(=O)N(C)[C@H](Cc2ccccc2)C(=O)N[C@@H](CC(C)C)C(=O)N[C@H](CCCNC(=N)N)C(=O)N[C@@H](CCC(=O)O)C(=O)N[C@H](Cc2ccc(O)cc2)C(=O)N[C@H](Cc2c[nH]c3ccccc23)C(=O)N[C@@H](Cc2ccc(O)cc2)C(=O)N[C@@H]([C@@H](C)O)C(=O)O[C@@H]1C` [Peptide A15] ({Hexanoyl(3R-OH,5-Me)}-T[dR]AG[dNMeF]L[dR]E[dY][dW]YT; ester 1-C) the EC50 [1, 3] was 57.6 nM, the EC50 [1, 4] was 39.6 nM and the EC50 [1, 5] was 9 nM. For the same compound, the EC50 [1, 6] was 35.4 ± 24.6 nM and the antimicrobial activity [2] was “+”.

In the case of `CC[C@H](C)[C@@H]1NC(=O)[C@@H](Cc2c[nH]c3ccccc23)NC(=O)[C@@H](CCCN)NC(=O)[C@H](CCC(=O)O)NC(=O)[C@@H](CCCNC(=N)N)NC(=O)[C@H](CC(C)C)NC(=O)[C@@H](Cc2ccccc2)N(C)C(=O)CNC(=O)[C@H](CC(N)=O)NC(=O)[C@@H](CCCNC(=N)N)NC(=O)[C@@H](NC(=O)C[C@H](O)CC(C)C)[C@@H](C)OC(=O)[C@H]([C@@H](C)O)NC1=O` [Peptide A14] ({Hexanoyl(3R-OH,5-Me)}-T[dR]NG[dNMeF]L[dR]E[dOrn][dW]IT; ester 1-C), the “selectivity index (EC50 against PC/PG/3 divided by EC50 against PC/PG/2)” value [1] is reported as over 19.7, the EC50 [1, 3] is reported as 118 nM and the EC50 [1, 4] is reported as 79.1 nM. The EC50 [1, 5] was 31.9 nM, the EC50 [1, 6] was 76.3 ± 43.1 nM and the antimicrobial activity [2] was “+”.

For `CC[C@H](C)[C@@H]1NC(=O)[C@@H](Cc2c[nH]c3ccccc23)NC(=O)[C@@H](CCC(N)=O)NC(=O)[C@H](CCC(=O)O)NC(=O)[C@@H](CCCNC(=N)N)NC(=O)[C@H](CC(C)C)NC(=O)[C@@H](Cc2ccccc2)N(C)C(=O)CNC(=O)[C@H](CO)NC(=O)[C@@H](CCCNC(=N)N)NC(=O)[C@@H](NC(=O)C[C@H](O)CC(C)C)[C@@H](C)OC(=O)[C@H]([C@@H](C)O)NC1=O` [Peptide 1, Lysocin E] ({Hexanoyl(3R-OH,5-Me)}-T[dR]SG[dNMeF]L[dR]E[dQ][dW]IT; ester 1-C), the “selectivity index (EC50 against PC/PG/3 divided by EC50 against PC/PG/2)” value [1] was 4.7, the EC50 [1, 3] was 16.7 nM and the EC50 [1, 4] was 34 nM. For the same compound, the EC50 [1, 5] was 7.9 nM, the EC50 [1, 6] was 19.5 nM and the “growth inhibition of S. aureus Smith ATCC 13709” value ([2]; 10% BCS-doped Mueller Hinton Broth (40 μL), natural 1 0.04 μg per well or 85% of single bead-derived 1 (0.21 μg), duplicate) was “Complete growth inhibition; also recorded: completely inhibit the growth”. For the same compound, the antimicrobial activity [2] was “++”.

In the case of `CC[C@H](C)[C@@H]1NC(=O)[C@@H](Cc2c[nH]c3ccccc23)NC(=O)[C@@H](CCCN)NC(=O)[C@H](CCC(=O)O)NC(=O)[C@@H](CCCNC(=N)N)NC(=O)[C@H](CC(C)C)NC(=O)[C@@H](Cc2ccccc2)N(C)C(=O)CNC(=O)[C@H](Cc2ccc(O)cc2)NC(=O)[C@@H](CCCNC(=N)N)NC(=O)[C@@H](NC(=O)C[C@H](O)CC(C)C)[C@@H](C)OC(=O)[C@H]([C@@H](C)O)NC1=O` [Peptide A7] ({Hexanoyl(3R-OH,5-Me)}-T[dR]YG[dNMeF]L[dR]E[dOrn][dW]IT; ester 1-C), the “selectivity index (EC50 against PC/PG/3 divided by EC50 against PC/PG/2)” value [1] is reported as 19.7, the EC50 [1, 3] is reported as 24.6 nM and the EC50 [1, 4] is reported as 27.8 nM. For the same compound, the EC50 [1, 5] was 14.9 nM, the EC50 [1, 6] was 22.4 ± 6.7 nM and the antimicrobial activity ([2]; listed as YLOI) was “+ and ++”.

With `CC[C@H](C)[C@@H]1NC(=O)[C@@H](Cc2c[nH]c3ccccc23)NC(=O)[C@@H](CCCN)NC(=O)[C@H](CCC(=O)O)NC(=O)[C@@H](CCCNC(=N)N)NC(=O)[C@H](CC(C)C)NC(=O)[C@@H](Cc2ccccc2)N(C)C(=O)CNC(=O)[C@H](CC(=O)O)NC(=O)[C@@H](CCCNC(=N)N)NC(=O)[C@@H](NC(=O)C[C@H](O)CC(C)C)[C@@H](C)OC(=O)[C@H]([C@@H](C)O)NC1=O` [Peptide A16] ({Hexanoyl(3R-OH,5-Me)}-T[dR]DG[dNMeF]L[dR]E[dOrn][dW]IT; ester 1-C) the “selectivity index (EC50 against PC/PG/3 divided by EC50 against PC/PG/2)” value [1] was 20.6, the EC50 [1, 3] was 70.1 nM and the EC50 [1, 4] was 33.5 nM. The EC50 [1, 5] was 17.1 nM, the EC50 [1, 6] was 40.3 ± 27.1 nM and the antimicrobial activity [2] was “+”.

`CC[C@H](C)[C@@H]1NC(=O)[C@@H](Cc2c[nH]c3ccccc23)NC(=O)[C@@H](Cc2ccc(O)cc2)NC(=O)[C@H](CCC(=O)O)NC(=O)[C@@H](CCCNC(=N)N)NC(=O)[C@H](CC(C)C)NC(=O)[C@@H](Cc2ccccc2)N(C)C(=O)CNC(=O)[C@H](CC(=O)O)NC(=O)[C@@H](CCCNC(=N)N)NC(=O)[C@@H](NC(=O)C[C@H](O)CC(C)C)[C@@H](C)OC(=O)[C@H]([C@@H](C)O)NC1=O` [Peptide A17] ({Hexanoyl(3R-OH,5-Me)}-T[dR]DG[dNMeF]L[dR]E[dY][dW]IT; ester 1-C) gave an EC50 [1, 3] of 437 nM, an EC50 [1, 4] of 178 nM and an EC50 [1, 5] of 144 nM. The EC50 [1, 6] was 253 ± 160 nM and the antimicrobial activity [2] was “+”.

For `CC[C@H](C)[C@@H]1NC(=O)[C@@H](Cc2c[nH]c3ccccc23)NC(=O)[C@@H](C(C)C)NC(=O)[C@H](CCC(=O)O)NC(=O)[C@@H](CCCNC(=N)N)NC(=O)[C@H](CC(C)C)NC(=O)[C@@H](Cc2ccccc2)N(C)C(=O)CNC(=O)[C@H](CCCCN)NC(=O)[C@@H](CCCNC(=N)N)NC(=O)[C@@H](NC(=O)C[C@H](O)CC(C)C)[C@@H](C)OC(=O)[C@H]([C@@H](C)O)NC1=O` [Peptide A3] ({Hexanoyl(3R-OH,5-Me)}-T[dR]KG[dNMeF]L[dR]E[dV][dW]IT; ester 1-C), the EC50 [1, 3] was 7.68 nM, the EC50 [1, 4] was 14.6 nM and the EC50 [1, 5] was 9.8 nM. For the same compound, the EC50 [1, 6] was 10.7 ± 3.5 nM and the antimicrobial activity ([2]; listed as KLVI) was “++ and +”.
